IC50 data for 24 molecules are collected here from US20200308165A1, “Compounds as Ras Inhibitors and Use Thereof” (D.E. Shaw Research, LLC, priority 2017, published 2020).

One experiment concerns the target Ras protein (Homo sapiens, UniProt P01116). The experiment can be described thus: GDPx_Icagen_IC50: SOS1-mediated guanine nucleotide exchange rate of Ras (mant-GDP). The format is biochemical. Conditions: SOS1-initiated exchange.
Source text: (§1) In some embodiments, the IC50 assay measures the reduction effect of a given compound on the guanine nucleotide-echange rate of Ras protein in the presence of guanine nucleotide exchange protein SOS1, which is a Ras activator. In the assay GDP-loaded Ras was first prepared in a buffer containing the compound at certain concentration and fluorescent guanine nucleotide (mant-GDP (used in Icagene assay) or mant-GTP (used in other IC50 assays). The guanine nucleotide exchange was initiated by the addition of the SOS1 and its rate was reflected in the rate of fluorescence change as a function of time, which was monitored by a reader. The experiment was repeated at different compound concentrations and the IC50 of the compound was defined as the compound concentration at which half of its maximal reduction effect on the guanine nucleotide exchange rate is achieved. In other embodiments, other Ras activator proteins may be used. Non-limiting examples of other Ras activator proteins include RasGRP (Ras guanyl-releasing protein).
Example 17. Evaluation of Biological Activities: GDPx_Icagen_ICso
as §1, with “The IC50” for “In some embodiments, the IC50”, “guanine nucleotide-exchange” for “guanine nucleotide-echange”, “Ras is” for “Ras was”, “nucleotide (mant-GDP).” for “nucleotide (mant-GDP (used in Icagene assay) or mant-GTP (used in other IC50 assays).”, “achieved.” for “achieved. In other embodiments, other Ras activator proteins may be used. Non-limiting examples of other Ras activator proteins include RasGRP (Ras guanyl-releasing protein).”

The target of another experiment is T1, KRAS4B (wild type) (Homo sapiens, UniProt P01116).
T1 construct: purchased Cytoskeleton CS-RS03 (K-Ras4B); CS-SOS1-A (SOS1)
The experiment can be described thus: K-Ras Nucleotide Exchange Assay-384 (SOS Exchange Assay by Cytoskeleton, GTPx_Cyt_IC50). As to conditions: 1 μM KRAS4B, 0.05 μM SOS1, 1.5 μM mant-GDP. The class given is biochemical. The method, then:
Example 16. Evaluation of Biological Activities: K-Ras Nucleotide Exchange Assay-384 (SOS Exchange Assay by Cytoskeleton (GTPx_Cyt_IC50))
This assay is used to evaluate inhibitors of K-ras, by monitoring the inhibition of nucleotide exchange over time, in the presence of the protein SOS.
384-well black, untreated plates (Corning 3820 with NBS or 3821 untreated) were used. K-Ras4B Protein was used, which is wild-type (Cytoskeleton #CS-RS03) with a concnetration of 5 mg/ml, or 200 μM. Human SOS1 Protein, Exchange Domain 564-1049 (Cytoskeleton # CS-SOS1-A) was used in a concentration of 3.03 mg/ml or 50 μM. Mant-GDP triethylammonium salt solution was purchased from Sigma (catalog No. 69244). 1M stock solution of Hepes was purchased from Sigma (catalog No. H9897). 1M stock solution of MgCl2 was purchased from Sigma (catalog No. M4880). CHAPS, 3% was purchased from Sigma (catalog No. C5070). Nonidet P40 was purchased from Sigma. KOH pellets were purchased from Sigma.
K-ras buffer containing 40 mM Hepes, 10 mM MgCl2, 0.05% CHAPS, 0.01% NP40 with a pH 7.5 was prepared as follows: to a Buffer base containing 4 ml 1M Hepes, 1 ml MgCl2,
93.3 ml d-H2O, pH 7.5 (with KOH pellets), 1.7 ml 3% CHAPS was added, followed by the addition of 1 ml 1% NP40.
Final Conditions of the method included 1 μM KRAS4B (wild type), 0.05 μM SOS1, 1.5 μM mant-GDP. Reagent Preparation included: thawing aliquots of KRAS, SOS, and mant-GDP; preparing 3x KRAS (3 uM) in assay buffer; preparing 3x SOS/mant-GDP (150 nM/4.5 uM) in assay buffer; and preparing 3x compounds in assay buffer.
Assay Procedure (1536) used 3.3 μl, 3x Kras, 3.3 μl 3x compound with preincubate 0 hour, and […] 3x SOS/mant-GDP. A kinetic read measuring fluorescence at 360_450 was performed for 30 min at 30 second intervals.
Reference compound SCH 54292 (reversible inhibitor) at about 100 μM was used with no preincubation. Reagents were only stable for 45 min on ice, and therefore were prepared fresh before each assay. Partial plates (up to 9 columns) were run at a time to minimize effects due to the amount of time it takes to read a whole plate. SOS/mant-GDP were added with an automated pipettor to initiate all reactions at the same time. Assay was typically performed at 0.5% solution in DMSO (compounds prepared in 1.5% DMSO initially).
Clariostar Settings were as follows. Test Name was Kras Kinetic 360-450. Basic settings of the test included Measurement type as Fluorescence (FI), and Microplate name as Corning 3820. Plate mode settings included 61 cycles, 30 second cycle time, and 10 flashes per well. Optic settings were as follows. Excitation wavelength was 360 nm. Emission wavelength was 450 nM. Excitation bandwidth was 12 nm. Emission bandwidth was 12 nm. Dichroic filter 405 was used. D6 Well(s) was used for gain adjustment. No shaking was used. General settings were as follows. Top optic was used. Settling time was 0.1 second. Reading direction was bidirectional, horizontal left to right, and bottom to top. The target temperature was 25° C.

Ras protein, sequence (P01116 1-188 isoform P01116-2): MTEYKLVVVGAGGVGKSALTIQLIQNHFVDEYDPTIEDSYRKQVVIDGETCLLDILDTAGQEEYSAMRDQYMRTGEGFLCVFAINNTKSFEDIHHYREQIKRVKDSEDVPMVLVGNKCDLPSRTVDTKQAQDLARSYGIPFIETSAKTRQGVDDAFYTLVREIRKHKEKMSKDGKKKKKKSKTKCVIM
T1 sequence (P01116 1-188 isoform P01116-2): as above

For `O=c1cc(COc2ccccc2)[nH]n1-c1nc2ccccc2[nH]1` [Compound145, 2-(1H-benzo[d]imidazol-2-yl)-5-(phenoxymethyl)-1,2-dihydro-3H-pyrazol-3-one], the IC50 against Ras protein turned out to be 800 nM; against KRAS4B (wild type), 3900 nM.

Regarding `CCc1csc(SCc2cc(=O)n(-c3nc4ccccc4[nH]3)[nH]2)n1` [Compound 139, 2-(1H-benzo[d]imidazol-2-yl)-5-(((4-ethylthiazol-2-yl)thio)methyl)-1H-pyrazol-3(2H)-one], at Ras protein, the half-maximal inhibitory concentration (IC50) came out at 50 nM.

Regarding `Cc1ccc(-n2[nH]c(CSc3ccccc3)cc2=O)nc1` [Compound 140, 2-(5-methylpyridin-2-yl)-5-((phenylthio)methyl)-1H-pyrazol-3(2H)-one], the 50% inhibitory concentration (IC50) on Ras protein was found to be 1600 nM; at KRAS4B (wild type) it was 30800 nM.

Take `Cc1c(CSc2ccccc2)[nH]n(-c2nc3ccccc3[nH]2)c1=O` [Compound 141, 2-(1H-benzo[d]imidazol-2-yl)-4-methyl-5-((phenylthio)methyl)-1H-pyrazol-3(2H)-one]: the half-maximal inhibitory concentration (IC50) against Ras protein is 770 nM; on KRAS4B (wild type), 100000 nM.

As to `O=c1cc(CSc2ccccn2)[nH]n1-c1nc2ccccc2[nH]1` [Compound 142, 2-(1H-benzo[d]imidazol-2-yl)-5-((pyridin-2-ylthio)methyl)-1H-pyrazol-3(2H)-one], the IC50 against Ras protein worked out at 170 nM; against KRAS4B (wild type), 1200 nM.

Turning to `Cc1cc(C)nc(SCc2cc(=O)n(-c3ccccn3)[nH]2)n1` [Compound 143, 5-(((4,6-dimethylpyrimidin-2-yl)thio)methyl)-2-(pyridin-2-yl)-1,2-dihydro-3H-pyrazol-3-one], the IC50 against Ras protein turned out to be 2100 nM; against KRAS4B (wild type), 5400 nM.

Regarding `O=c1cc(CSc2ccccc2)[nH]n1-c1nc2ccccc2[nH]1` [Compound 144, 2-(1H-benzo[d]imidazol-2-yl)-5-((phenylthio)methyl)-1,2-dihydro-3H-pyrazol-3-one], the values for the IC50 against Ras protein and against KRAS4B (wild type) were 300 nM and 420 nM, respectively.

With `Cc1cc(C)nc(SCc2cc(=O)n(-c3nc4ccccc4[nH]3)[nH]2)n1` [Compound 146, 2-(1H-benzo[d]imidazol-2-yl)-5-(((4,6-dimethylpyrimidin-2-yl)thio)methyl)-1,2-dihydro-3H-pyrazol-3-one], the concentration for half-maximal inhibition (IC50) on Ras protein is 1800 nM; on KRAS4B (wild type), 2600 nM.

Turning to `Cc1nnc(SCc2cc(=O)n(-c3nc4ccccc4[nH]3)[nH]2)s1` [Compound 147, 2-(1H-benzo[d]imidazol-2-yl)-5-(((5-methyl-1,3,4-thiadiazol-2-yl)thio)methyl)-1,2-dihydro-3H-pyrazol-3-one], the values for the 50% inhibitory concentration (IC50) at Ras protein and against KRAS4B (wild type) were 3300 nM and 850 nM, respectively.

`O=c1cc(CSCc2ccc(F)cc2)[nH]n1-c1nc2ccccc2[nH]1` [Compound 148, 2-(1H-benzo[d]imidazol-2-yl)-5-(((4-fluorobenzyl)thio)methyl)-1,2-dihydro-3H-pyrazol-3-one]: the half-inhibitory concentration (IC50) against Ras protein is 300 nM; against KRAS4B (wild type), 550 nM.

Turning to `O=c1cc(CSc2nccc(C(F)(F)F)n2)[nH]n1-c1nc2ccccc2[nH]1` [Compound 149, 2-(1H-benzo[d]imidazol-2-yl)-5-(((4-(trifluoromethyl)pyrimidin-2-yl)thio)methyl)-1,2-dihydro-3H-pyrazol-3-one], the IC50 at Ras protein was 300 nM; on KRAS4B (wild type), 410 nM.

For the molecule `COc1cccc(SCc2cc(=O)n(-c3nc4ccccc4[nH]3)[nH]2)c1` [Compound 150, 2-(1H-benzo[d]imidazol-2-yl)-5-(((3-methoxyphenyl)thio)methyl)-1,2-dihydro-3H-pyrazol-3-one], the IC50 was found to be 200 nM against Ras protein and 980 nM on KRAS4B (wild type).

`Cc1cc(C)nc(SCc2cc(=O)n(-c3nc4ccc(Br)cc4s3)[nH]2)n1` [Compound 155, 2-(6-bromobenzo[d]thiazol-2-yl)-5-(((4,6-dimethylpyrimidin-2-yl)thio)methyl)-1,2-dihydro-3H-pyrazol-3-one] showed a concentration for half-maximal inhibition (IC50) against KRAS4B (wild type) of 12800 nM.

`Cc1cc(C)nc(SCc2cc(=O)n(-c3ccc(C(F)(F)F)cn3)[nH]2)n1` [Compound 157, 5-(((4,6-dimethylpyrimidin-2-yl)thio)methyl)-2-(5-(trifluoromethyl)pyridin-2-yl)-1,2-dihydro-3H-pyrazol-3-one] yielded an IC50 on KRAS4B (wild type) of 17600 nM.

In turn, `O=c1cc(CSc2ccc(Br)cn2)[nH]n1-c1ccccn1` [Compound 160, 5-(((5-bromopyridin-2-yl)thio)methyl)-2-(pyridin-2-yl)-1,2-dihydro-3H-pyrazol-3-one] showed an IC50 against KRAS4B (wild type) of 7400 nM.

In the case of `O=c1cc(CSCc2ccc(F)cc2)[nH]n1-c1ccccn1` [Compound 161, 5-(((4-fluorobenzyl)thio)methyl)-2-(pyridin-2-yl)-1,2-dihydro-3H-pyrazol-3-one], the IC50 on KRAS4B (wild type) was 2700 nM.

Regarding `O=c1cc(CSc2cc(Cl)cc(Cl)c2)[nH]n1-c1nc2ccccc2[nH]1` [Compound 175, 2-(1H-benzo[d]imidazol-2-yl)-5-(((3,5-dichlorophenyl)thio)methyl)-1,2-dihydro-3H-pyrazol-3-one], the half-inhibitory concentration (IC50) at Ras protein turned out to be 63 nM.

In turn, `O=c1cc(CSc2ccccc2)[nH]n1-c1cc(Br)ccn1` [Compound 176, 2-(4-bromopyridin-2-yl)-5-((phenylthio)methyl)-1,2-dihydro-3H-pyrazol-3-one] showed an IC50 against Ras protein of 6000 nM.

The molecule `O=c1cc(CSc2nc3cccnc3s2)[nH]n1-c1nc2ccccc2[nH]1` [Compound 177, 2-(1H-benzo[d]imidazol-2-yl)-5-((thiazolo[5,4-b]pyridin-2-ylthio)methyl)-1,2-dihydro-3H-pyrazol-3-one] yielded an IC50 at Ras protein of 400 nM.

With `NC(=O)c1ccc(SCc2cc(=O)n(-c3nc4ccccc4[nH]3)[nH]2)cc1` [Compound 178, 4-(((1-(1H-benzo[d]imidazol-2-yl)-5-oxo-2,5-dihydro-1H-pyrazol-3-yl)methyl)thio)benzamide], the IC50 on Ras protein stood at 320 nM.

Consider `O=c1cc(CSc2ccccc2)[nH]n1-c1ncc[nH]1` [Compound 179, 2-(1H-imidazol-2-yl)-5-((phenylthio)methyl)-1,2-dihydro-3H-pyrazol-3-one], for which the IC50 against Ras protein was determined as 4500 nM.

In the case of `O=c1cc(CSc2nc(Cc3ccccc3)cs2)[nH]n1-c1nc2ccccc2[nH]1` [Compound 180, 2-(1H-benzo[d]imidazol-2-yl)-5-(((4-benzylthiazol-2-yl)thio)methyl)-1,2-dihydro-3H-pyrazol-3-one], the IC50 on Ras protein was found to be 200 nM.

In the case of `O=c1cc(CSc2cccnc2)[nH]n1-c1nc2ccccc2[nH]1` [Compound 181, 2-(1H-benzo[d]imidazol-2-yl)-5-((pyridin-3-ylthio)methyl)-1,2-dihydro-3H-pyrazol-3-one], the concentration for half-maximal inhibition (IC50) against Ras protein is 2500 nM.

Take `Cc1csc(SCc2cc(=O)n(-c3ccccn3)[nH]2)n1` [Compound 182, 5-(((4-methylthiazol-2-yl)thio)methyl)-2-(pyridin-2-yl)-1,2-dihydro-3H-pyrazol-3-one]: the half-inhibitory concentration (IC50) on Ras protein stood at 3200 nM.

The IC50 is the concentration that gives 50% inhibition. High values mean a need for much substance, low ones inhibition by little substance.
